Assays:
[1] = target: Sodium-dependent noradrenaline transporter (Homo sapiens, UniProt P23975); test: DRUGMATRIX: Norepinephrine Transporter radioligand binding (ligand: [125I] RTI-55); type: cell membranes, MDCK, Membrane; conditions: Not Active = under 50% inhibition at 10 µM
[2] = target: Aldo-keto reductase family 1 member B1 (Rattus norvegicus, UniProt P07943); test: biochemical; type: tissue-based, Lens of camera-type eye;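 also: inhibition of aldose reductase enzyme activity, measured with DL-glyceraldehyde as the substrate; in other assays of this panel Not Active means under 50% inhibition at 10 µM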
B2 bradykinin receptor = target: T1, B2 bradykinin receptor (Homo sapiens, UniProt P30411); type: cell membranes, Membrane; conditions: chem-1; also: in other assays of this panel Not Active means under 50% inhibition at 10 µM
T1 sequence (P30411 whole entry): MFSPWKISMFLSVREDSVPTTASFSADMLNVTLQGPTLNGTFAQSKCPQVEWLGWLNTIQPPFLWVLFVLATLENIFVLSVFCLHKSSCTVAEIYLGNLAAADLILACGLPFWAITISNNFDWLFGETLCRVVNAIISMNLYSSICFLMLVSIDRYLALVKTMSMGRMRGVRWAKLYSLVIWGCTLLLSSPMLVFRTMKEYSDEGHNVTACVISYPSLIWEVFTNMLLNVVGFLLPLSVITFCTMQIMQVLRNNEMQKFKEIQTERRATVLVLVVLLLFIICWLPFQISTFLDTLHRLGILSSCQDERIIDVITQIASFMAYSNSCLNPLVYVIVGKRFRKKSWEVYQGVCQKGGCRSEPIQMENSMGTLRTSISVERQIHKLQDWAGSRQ

[3] = target: T2, 5-hydroxytryptamine receptor 2C (Homo sapiens, UniProt P28335); test: DRUGMATRIX: Serotonin (5-Hydroxytryptamine) 5-HT2C radioligand binding (ligand: [3H] Mesulergine); type: cell membranes, CHO-K1, Membrane; conditions: cho-k1; Not Active = under 50% inhibition at 10 µM
T2 sequence (P28335 whole entry): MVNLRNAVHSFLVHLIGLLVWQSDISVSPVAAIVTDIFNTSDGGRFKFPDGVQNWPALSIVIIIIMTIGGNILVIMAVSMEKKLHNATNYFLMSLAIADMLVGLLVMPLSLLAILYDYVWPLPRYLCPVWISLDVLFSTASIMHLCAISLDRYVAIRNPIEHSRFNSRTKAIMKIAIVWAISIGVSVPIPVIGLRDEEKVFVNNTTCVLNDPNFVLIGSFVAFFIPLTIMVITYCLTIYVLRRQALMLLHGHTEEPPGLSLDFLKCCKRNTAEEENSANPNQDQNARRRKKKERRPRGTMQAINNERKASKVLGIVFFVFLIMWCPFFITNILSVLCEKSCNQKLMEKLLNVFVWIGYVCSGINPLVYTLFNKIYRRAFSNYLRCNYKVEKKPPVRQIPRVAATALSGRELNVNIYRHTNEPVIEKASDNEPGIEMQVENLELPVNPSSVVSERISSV

[4] = target: T3, Cholecystokinin receptor type A (Homo sapiens, UniProt P32238); type: cell membranes, Membrane; conditions: 1321-n1; also: in other assays of this panel Not Active means under 50% inhibition at 10 µM
T3 sequence (P32238 whole entry): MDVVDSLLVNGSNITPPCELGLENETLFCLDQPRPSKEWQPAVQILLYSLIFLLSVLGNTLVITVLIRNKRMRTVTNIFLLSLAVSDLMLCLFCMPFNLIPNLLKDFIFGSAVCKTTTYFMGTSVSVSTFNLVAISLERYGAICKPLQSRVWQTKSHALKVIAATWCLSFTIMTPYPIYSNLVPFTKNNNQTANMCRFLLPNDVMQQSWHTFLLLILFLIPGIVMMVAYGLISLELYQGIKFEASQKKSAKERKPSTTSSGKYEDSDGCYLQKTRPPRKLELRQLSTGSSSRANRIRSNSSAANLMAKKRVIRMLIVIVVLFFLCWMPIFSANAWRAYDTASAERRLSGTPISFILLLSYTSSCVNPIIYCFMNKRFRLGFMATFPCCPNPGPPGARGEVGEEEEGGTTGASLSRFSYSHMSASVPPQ

D(4) dopamine receptor = target: T4, D(4) dopamine receptor (Homo sapiens, UniProt P21917); test: DRUGMATRIX: Dopamine D4.2 radioligand binding (ligand: [3H] Spiperone); type: cell membranes, Membrane; conditions: cho-k1; Not Active = under 50% inhibition at 10 µM
T4 sequence (P21917 whole entry): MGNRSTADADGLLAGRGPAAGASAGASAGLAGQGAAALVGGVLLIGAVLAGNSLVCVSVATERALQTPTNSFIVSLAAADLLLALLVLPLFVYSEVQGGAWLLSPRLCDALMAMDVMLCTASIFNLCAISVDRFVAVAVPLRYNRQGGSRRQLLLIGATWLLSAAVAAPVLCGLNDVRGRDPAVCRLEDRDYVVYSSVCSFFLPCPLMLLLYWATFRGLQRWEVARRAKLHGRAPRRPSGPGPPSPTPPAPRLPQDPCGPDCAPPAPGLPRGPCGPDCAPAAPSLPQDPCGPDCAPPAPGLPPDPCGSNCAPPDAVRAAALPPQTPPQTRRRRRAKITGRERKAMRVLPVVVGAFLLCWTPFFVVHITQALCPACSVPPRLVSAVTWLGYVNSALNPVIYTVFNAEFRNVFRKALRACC

[5] = target: Sodium-dependent dopamine transporter (Homo sapiens, UniProt Q01959); test: DRUGMATRIX: Dopamine Transporter radioligand binding (ligand: [125I] RTI-55); type: cell membranes, CHO-K1, Membrane; conditions: cho-k1; Not Active = under 50% inhibition at 10 µM
[6] = DRUGMATRIX: Imidazoline I2, Central radioligand binding (ligand: [3H] Idazoxan); type: cell membranes, Rattus norvegicus, Wistar, Cerebral cortex, Membrane; conditions: Not Active = under 50% inhibition at 10 µM
[7] = target: Protein kinase C alpha type (Homo sapiens, UniProt P17252); type: cell-based; conditions: sf9;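 also: inhibition of PKCalpha kinase activity measured in an enzyme assay with histone as the phosphorylation substrate; in other assays of this panel Not Active means under 50% inhibition at 10 µM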
[8] = target: Protein phosphatase 3 catalytic subunit alpha (Homo sapiens, UniProt Q08209); set-up: species or system Escherichia coli

Chain of Sodium-dependent noradrenaline transporter (P23975 whole entry): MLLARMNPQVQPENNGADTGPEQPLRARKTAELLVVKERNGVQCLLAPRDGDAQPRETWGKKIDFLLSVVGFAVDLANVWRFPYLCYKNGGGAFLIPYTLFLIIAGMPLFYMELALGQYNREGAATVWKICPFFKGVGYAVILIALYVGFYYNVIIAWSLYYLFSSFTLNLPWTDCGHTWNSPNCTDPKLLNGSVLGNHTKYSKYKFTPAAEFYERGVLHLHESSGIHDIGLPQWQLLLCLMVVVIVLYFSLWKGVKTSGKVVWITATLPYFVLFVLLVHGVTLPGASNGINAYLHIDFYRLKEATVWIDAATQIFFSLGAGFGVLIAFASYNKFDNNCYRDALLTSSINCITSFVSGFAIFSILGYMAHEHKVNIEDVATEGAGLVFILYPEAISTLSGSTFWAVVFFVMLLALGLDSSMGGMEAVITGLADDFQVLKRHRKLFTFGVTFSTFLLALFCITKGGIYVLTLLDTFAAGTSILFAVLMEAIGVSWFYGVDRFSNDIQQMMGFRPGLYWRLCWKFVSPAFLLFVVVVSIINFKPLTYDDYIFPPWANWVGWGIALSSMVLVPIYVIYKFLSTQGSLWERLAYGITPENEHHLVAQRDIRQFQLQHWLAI
Chain of Sodium-dependent dopamine transporter (Q01959 whole entry): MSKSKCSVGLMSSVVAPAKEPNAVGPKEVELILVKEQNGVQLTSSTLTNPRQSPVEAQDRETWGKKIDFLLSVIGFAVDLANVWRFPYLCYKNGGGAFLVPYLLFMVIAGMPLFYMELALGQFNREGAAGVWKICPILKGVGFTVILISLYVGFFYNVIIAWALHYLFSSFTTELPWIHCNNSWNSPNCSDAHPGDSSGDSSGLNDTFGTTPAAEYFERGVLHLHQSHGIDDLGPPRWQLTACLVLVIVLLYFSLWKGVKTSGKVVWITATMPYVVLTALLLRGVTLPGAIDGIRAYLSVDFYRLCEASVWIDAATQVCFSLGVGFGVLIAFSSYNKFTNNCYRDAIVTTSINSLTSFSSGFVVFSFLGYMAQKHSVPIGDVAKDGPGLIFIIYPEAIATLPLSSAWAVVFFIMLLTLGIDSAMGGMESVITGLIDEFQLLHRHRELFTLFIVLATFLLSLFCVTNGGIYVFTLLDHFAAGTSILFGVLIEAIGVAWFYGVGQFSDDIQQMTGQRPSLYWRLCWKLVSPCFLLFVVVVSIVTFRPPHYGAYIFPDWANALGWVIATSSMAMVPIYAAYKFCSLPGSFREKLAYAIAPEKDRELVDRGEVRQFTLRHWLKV

In the case of `COc1cc(NS(=O)(=O)c2ccc(N)cc2)nc(OC)n1` [SULFADIMETHOXINE], the IC50 ([1]; mdck) is reported as “Not Active”, the IC50 [2] is reported as “Not Active” and the IC50 (B2 bradykinin receptor) is reported as “Not Active”. For the same molecule, the IC50 [3] was “Not Active”, the IC50 [4] was “Not Active” and the IC50 (D(4) dopamine receptor) was “Not Active”. The IC50 [5] was “Not Active”, the IC50 [6] was “Not Active” and the Ki [6] was “Not Active”. The IC50 [7] was “Not Active” and the IC50 [8] was “Not Active”.

In the case of `C[C@]1(Cn2ccnn2)[C@H](C(=O)O)N2C(=O)C[C@H]2S1(=O)=O` [TAZOBACTAM], the IC50 ([1]; mdck) is reported as “Not Active”, the IC50 [2] is reported as “Not Active” and the IC50 (B2 bradykinin receptor) is reported as “Not Active”. For the same molecule, the IC50 [3] was “Not Active”, the IC50 [4] was “Not Active” and the IC50 (D(4) dopamine receptor) was “Not Active”. For the same molecule, the IC50 [5] was “Not Active”, the IC50 [6] was “Not Active” and the Ki [6] was “Not Active”. The IC50 [7] was “Not Active” and the IC50 [8] was “Not Active”.

With `[Cl-].[Cl-].[Zn+2]` [ZINC CHLORIDE] the IC50 ([1]; read-out: IC50) was 7.01 µM, the Ki ([1]; read-out: Ki) was 6.95 µM and the IC50 [2] was “Not Active”. For the same molecule, the IC50 (B2 bradykinin receptor) was “Not Active”, the IC50 [3] was “Not Active” and the IC50 [4] was “Not Active”. For the same molecule, the IC50 (D(4) dopamine receptor) was “Not Active”, the IC50 [5] was “Not Active” and the IC50 [6] was “Not Active”. The Ki [6] was “Not Active”, the IC50 [7] was “Not Active” and the IC50 ([8]; read-out: IC50) was 1.1 µM.

With `CN1C(C(=O)Nc2ccccn2)=C(O)c2sccc2S1(=O)=O` [TENOXICAM] the IC50 ([1]; mdck) was “Not Active”, the IC50 [2] was “Not Active” and the IC50 (B2 bradykinin receptor) was “Not Active”. The IC50 [3] was “Not Active”, the IC50 [4] was “Not Active” and the IC50 (D(4) dopamine receptor) was “Not Active”. For the same molecule, the IC50 [5] was “Not Active”, the IC50 [6] was “Not Active” and the Ki [6] was “Not Active”. The IC50 [7] was “Not Active” and the IC50 [8] was “Not Active”.

In the case of `CC(=O)N[C@@H]1[C@H](Oc2c3cc4cc2Oc2ccc(cc2Cl)[C@@H](O[C@@H]2O[C@@H](CO)[C@@H](O)[C@H](O)[C@@H]2NC(C)=O)[C@@H]2NC(=O)[C@H](NC(=O)[C@@H]4NC(=O)[C@H]4NC(=O)[C@@H](Cc5ccc(c(Cl)c5)O3)NC(=O)[C@H](N)c3ccc(O)c(c3)Oc3cc(O)cc4c3)c3ccc(O)c(c3)-c3c(O[C@H]4O[C@H](CO)[C@@H](O)[C@@H](O)[C@@H]4O)cc(O)cc3[C@@H](C(=O)O)NC2=O)O[C@@H](CO)[C@@H](O)[C@@H]1O`, the IC50 ([1]; mdck) is reported as “Not Active”, the IC50 [2] is reported as “Not Active” and the IC50 (B2 bradykinin receptor) is reported as “Not Active”. For the same molecule, the IC50 [3] was “Not Active”, the IC50 [4] was “Not Active” and the IC50 (D(4) dopamine receptor) was “Not Active”. The IC50 [5] was “Not Active”, the IC50 [6] was “Not Active” and the Ki [6] was “Not Active”. The IC50 [7] was “Not Active” and the IC50 [8] was “Not Active”.

With `COCCCOc1ccnc(C[S+]([O-])c2nc3ccccc3[nH]2)c1C` (stereo not drawn) [RABEPRAZOLE] the IC50 ([1]; mdck) was “Not Active”, the IC50 [2] was “Not Active” and the IC50 (B2 bradykinin receptor) was “Not Active”. The IC50 [3] was “Not Active”, the IC50 [4] was “Not Active” and the IC50 (D(4) dopamine receptor) was “Not Active”. The IC50 [5] was “Not Active”, the IC50 [6] was “Not Active” and the Ki [6] was “Not Active”. The IC50 [7] was “Not Active” and the IC50 [8] was “Not Active”.

For `CO[C@H]1/C=C/O[C@@]2(C)Oc3c(C)c(O)c4c(c3C2=O)C2=NC3(CCN(CC(C)C)CC3)NC2=C(NC(=O)/C(C)=C\C=C\[C@H](C)[C@H](O)[C@@H](C)[C@@H](O)[C@@H](C)[C@H](OC(C)=O)[C@@H]1C)C4=O` [RIFABUTIN], the IC50 ([1]; mdck) was “Not Active”, the IC50 [2] was “Not Active” and the IC50 (B2 bradykinin receptor) was “Not Active”. For the same molecule, the IC50 [3] was “Not Active”, the IC50 [4] was “Not Active” and the IC50 (D(4) dopamine receptor) was “Not Active”. For the same molecule, the IC50 [5] was “Not Active”, the IC50 [6] was “Not Active” and the Ki [6] was “Not Active”. For the same molecule, the IC50 [7] was “Not Active” and the IC50 [8] was “Not Active”.

With `CNC(=C[N+](=O)[O-])NCCSCc1ccc(CN(C)C)o1` [RANITIDINE] the IC50 ([1]; mdck) was “Not Active”, the IC50 [2] was “Not Active” and the IC50 (B2 bradykinin receptor) was “Not Active”. The IC50 [3] was “Not Active”, the IC50 [4] was “Not Active” and the IC50 (D(4) dopamine receptor) was “Not Active”. For the same molecule, the IC50 [5] was “Not Active”, the IC50 [6] was “Not Active” and the Ki [6] was “Not Active”. For the same molecule, the IC50 [7] was “Not Active” and the IC50 [8] was “Not Active”.

With `CC1=C(CC(=O)O)c2cc(F)ccc2/C1=C\c1ccc([S+](C)[O-])cc1` (stereo not drawn) the IC50 ([1]; mdck) was “Not Active”, the IC50 ([2]; read-out: IC50) was 0.435 µM and the IC50 (B2 bradykinin receptor) was “Not Active”. The IC50 [3] was “Not Active”, the IC50 [4] was “Not Active” and the IC50 (D(4) dopamine receptor) was “Not Active”. The IC50 [5] was “Not Active”, the IC50 [6] was “Not Active” and the Ki [6] was “Not Active”. The IC50 [7] was “Not Active” and the IC50 [8] was “Not Active”.

With `CC(=O)CC(c1ccccc1)c1c(O)c2ccccc2oc1=O` (stereo not drawn) [WARFARIN] the IC50 ([1]; mdck) was “Not Active”, the IC50 [2] was “Not Active” and the IC50 (B2 bradykinin receptor) was “Not Active”. The IC50 [3] was “Not Active”, the IC50 [4] was “Not Active” and the IC50 (D(4) dopamine receptor) was “Not Active”. The IC50 [5] was “Not Active”, the IC50 [6] was “Not Active” and the Ki [6] was “Not Active”. For the same molecule, the IC50 [7] was “Not Active” and the IC50 [8] was “Not Active”.

In the case of `C[C@@H](N)[C@H]1CC[C@H](C(=O)Nc2ccncc2)CC1` [Y-27632], the IC50 ([1]; mdck) is reported as “Not Active”, the IC50 [2] is reported as “Not Active” and the IC50 (B2 bradykinin receptor) is reported as “Not Active”. The IC50 [3] was “Not Active”, the IC50 [4] was “Not Active” and the IC50 (D(4) dopamine receptor) was “Not Active”. The IC50 [5] was “Not Active”, the IC50 [6] was “Not Active” and the Ki [6] was “Not Active”. For the same molecule, the IC50 [7] was “Not Active” and the IC50 [8] was “Not Active”.

With `CC(C)c1nc(CN(C)C(=O)N[C@H](C(=O)N[C@@H](Cc2ccccc2)C[C@H](O)[C@H](Cc2ccccc2)NC(=O)OCc2cncs2)C(C)C)cs1` [RITONAVIR] the IC50 ([1]; mdck) was “Not Active”, the IC50 [2] was “Not Active” and the IC50 (B2 bradykinin receptor) was “Not Active”. For the same molecule, the IC50 [3] was “Not Active”, the IC50 [4] was “Not Active” and the IC50 (D(4) dopamine receptor) was “Not Active”. For the same molecule, the IC50 [5] was “Not Active”, the IC50 [6] was “Not Active” and the Ki [6] was “Not Active”. The IC50 [7] was “Not Active” and the IC50 [8] was “Not Active”.

From ChEMBL document CHEMBL1909046, “DrugMatrix in vitro pharmacology data”
